Results from article PMC8284461, “Piperidine-4-Carboxamides Target DNA Gyrase in Mycobacterium abscessus” (Antimicrobial Agents and Chemotherapy, 2021).
In brackets after ≈: the same amount, converted by molar mass.

Key:
[1] = system: M. abscessus subsp. abscessus Bamboo; experiment: MIC, broth microdilution; format: cell-based, Mycobacterium abscessus; details: abscessus Bamboo wild type, 90% growth inhibition, 3 days
Experimental: (§1) MIC was determined using the broth microdilution method in 96-well plates as described previously ([47]). Briefly, a 10-point 2-fold serial dilution of compounds was performed in 96-well plates (Costar 3370; Corning, USA) starting at twice the desired highest concentration. […] One hundred microliters of the bacterial suspension was seeded onto the 96-well plates containing 100 μl of the serially diluted compounds to give a final volume of 200 μl in each well with the final OD600 of 0.005. The plates were sealed with parafilm, placed onto wet paper towels in a lock-lock box and incubated for 3 days at 37°C with orbital shaking at 90 rpm. […] Absorbance values at day 3 were subtracted from the day 0 readout. Percent growth inhibition was calculated by dividing the absolute absorbance value of treated cells with untreated control and multiplying by 100. CLR was included in all MIC experiments as a positive control to monitor assay reproducibility. MIC was defined as 90% of growth inhibition relative to untreated controls.

[2] = system: M. abscessus subsp. massiliense M111; experiment: MIC, broth microdilution; format: cell-based, Mycobacterium abscessus; details: Mycobacteroides abscessus, 72 h, 90% growth inhibition, 3 days
Experimental: as §1

[3] = system: M. abscessus subsp. bolletii M232; experiment: MIC, broth microdilution; format: cell-based, Mycobacterium abscessus; details: Mycobacteroides abscessus, 72 h, 90% growth inhibition, 3 days
Experimental: as §1

[4] = system: M. abscessus subsp. abscessus K21; experiment: MIC, broth microdilution; format: cell-based, Mycobacterium abscessus; details: Mycobacteroides abscessus, 72 h, 90% growth inhibition, 3 days
Experimental: as §1

[5] = system: M. abscessus subsp. abscessus M199; experiment: MIC, broth microdilution; format: cell-based, Mycobacterium abscessus; details: Mycobacteroides abscessus, 72 h, 90% growth inhibition, 3 days
Experimental: as §1

[6] = system: M. abscessus subsp. abscessus ATCC 19977; experiment: MIC, broth microdilution; format: cell-based, Mycobacterium abscessus; details: abscessus ATCC 19977 wild type, 90% growth inhibition, 3 days
Experimental: as §1

[7] = system: M. abscessus subsp. abscessus M404; experiment: MIC, broth microdilution; format: cell-based, Mycobacterium abscessus; details: Mycobacteroides abscessus, 72 h, 90% growth inhibition, 3 days
Experimental: as §1

[8] = system: M. abscessus subsp. abscessus M337; experiment: MIC, broth microdilution; format: cell-based, Mycobacterium abscessus; details: Mycobacteroides abscessus, 72 h, 90% growth inhibition, 3 days
Experimental: as §1

[9] = system: M. abscessus subsp. abscessus M421; experiment: MIC, broth microdilution; format: cell-based, Mycobacterium abscessus; details: Mycobacteroides abscessus, 72 h, 90% growth inhibition, 3 days
Experimental: as §1

[10] = system: M. abscessus subsp. bolletii M506; experiment: MIC, broth microdilution; format: cell-based, Mycobacterium abscessus; details: Mycobacteroides abscessus, 72 h, 90% growth inhibition, 3 days
Experimental: as §1

[11] = system: M. abscessus subsp. bolletii CCUG 50184T; experiment: MIC, broth microdilution; format: cell-based, Mycobacterium abscessus; details: Mycobacteroides abscessus, 72 h, 90% growth inhibition, 3 days
Experimental: as §1

[12] = system: M. abscessus subsp. massiliense CCUG 48898T; experiment: MIC, broth microdilution; format: cell-based, Mycobacterium abscessus; details: Mycobacteroides abscessus, 72 h, 90% growth inhibition, 3 days
Experimental: as §1

[13] = system: M. abscessus subsp. abscessus M9; experiment: MIC, broth microdilution; format: cell-based, Mycobacterium abscessus; details: Mycobacteroides abscessus, 72 h, 90% growth inhibition, 3 days
Experimental: as §1

[14] = system: M. abscessus subsp. abscessus ATCC 19977 MXF^r-2 (GyrA D96N); experiment: MIC, resistant mutant; format: cell-based, Mycobacterium abscessus; details: Mycobacteroides abscessus, ATCC19977
[15] = system: M. abscessus subsp. abscessus Bamboo 844^r-3 (GyrB S473W); experiment: MIC, resistant mutant; format: cell-based, Mycobacterium abscessus; details: Mycobacteroides abscessus
[16] = target: GyrA D91N mutant recombinant M. abscessus DNA gyrase (Mycobacteroides abscessus, UniProt B1ME45+B1ME58, D91N); format: biochemical, Mycobacterium abscessus
Chain of GyrA D91N mutant recombinant M. abscessus DNA gyrase (B1ME58 2-839, stated change not applied): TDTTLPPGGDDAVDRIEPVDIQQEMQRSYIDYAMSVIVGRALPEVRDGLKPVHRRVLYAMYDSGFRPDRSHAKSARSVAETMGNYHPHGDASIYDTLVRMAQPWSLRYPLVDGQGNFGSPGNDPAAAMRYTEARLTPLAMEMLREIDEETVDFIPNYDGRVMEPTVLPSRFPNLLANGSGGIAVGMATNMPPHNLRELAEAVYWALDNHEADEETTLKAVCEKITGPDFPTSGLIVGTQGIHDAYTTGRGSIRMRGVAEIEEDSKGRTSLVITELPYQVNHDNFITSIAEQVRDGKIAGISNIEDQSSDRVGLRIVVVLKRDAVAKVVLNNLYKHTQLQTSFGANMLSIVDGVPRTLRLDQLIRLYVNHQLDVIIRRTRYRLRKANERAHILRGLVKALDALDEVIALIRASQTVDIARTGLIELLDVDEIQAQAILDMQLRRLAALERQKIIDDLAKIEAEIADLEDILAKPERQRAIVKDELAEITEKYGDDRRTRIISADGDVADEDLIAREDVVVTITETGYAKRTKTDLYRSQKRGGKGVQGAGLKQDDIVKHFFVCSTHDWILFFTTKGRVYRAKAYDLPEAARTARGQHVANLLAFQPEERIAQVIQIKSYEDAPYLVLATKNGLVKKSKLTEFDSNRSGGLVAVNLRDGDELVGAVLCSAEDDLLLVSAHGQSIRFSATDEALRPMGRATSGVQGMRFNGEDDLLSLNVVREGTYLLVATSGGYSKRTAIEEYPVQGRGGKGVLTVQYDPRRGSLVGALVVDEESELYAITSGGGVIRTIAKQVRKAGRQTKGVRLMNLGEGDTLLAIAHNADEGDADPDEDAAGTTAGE
Chain of GyrA D91N mutant recombinant M. abscessus DNA gyrase (B1ME45 2-675, stated change not applied): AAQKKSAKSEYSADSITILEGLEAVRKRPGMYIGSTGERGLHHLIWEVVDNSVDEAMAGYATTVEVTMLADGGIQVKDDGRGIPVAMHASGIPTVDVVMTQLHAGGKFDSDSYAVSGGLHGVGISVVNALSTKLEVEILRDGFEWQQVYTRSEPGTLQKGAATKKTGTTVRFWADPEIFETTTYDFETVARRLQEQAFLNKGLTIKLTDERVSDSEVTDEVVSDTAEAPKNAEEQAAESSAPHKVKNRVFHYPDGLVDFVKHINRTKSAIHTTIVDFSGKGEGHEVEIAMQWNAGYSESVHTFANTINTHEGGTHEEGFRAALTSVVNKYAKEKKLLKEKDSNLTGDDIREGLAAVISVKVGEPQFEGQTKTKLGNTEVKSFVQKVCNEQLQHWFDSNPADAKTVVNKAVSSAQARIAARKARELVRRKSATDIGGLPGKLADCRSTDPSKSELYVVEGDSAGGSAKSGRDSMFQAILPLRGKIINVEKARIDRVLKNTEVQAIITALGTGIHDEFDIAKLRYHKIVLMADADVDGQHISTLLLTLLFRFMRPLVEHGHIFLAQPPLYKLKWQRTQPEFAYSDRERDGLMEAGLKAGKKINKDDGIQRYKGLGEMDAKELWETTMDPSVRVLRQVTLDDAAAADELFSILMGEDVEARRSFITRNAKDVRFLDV

[17] = system: M. abscessus subsp. abscessus Bamboo 844^r-2 (GyrA D91N); experiment: MIC, resistant mutant; format: cell-based, Mycobacterium abscessus; details: Mycobacteroides abscessus
[18] = system: P4C-resistant M. abscessus strains; experiment: Cross-resistance, MICs for P4C-resistant strains; format: cell-based, Mycobacterium abscessus; details: P4C-resistant strains of Table 2
[19] = system: M. abscessus subsp. abscessus ATCC 19977 844-TMF^r-4 (GyrB M474I); experiment: MIC, resistant mutant; format: cell-based, Mycobacterium abscessus; details: Mycobacteroides abscessus, ATCC19977
[20] = system: M. abscessus subsp. abscessus ATCC 19977 MXF^r-3 (GyrA D96G); experiment: MIC, resistant mutant; format: cell-based, Mycobacterium abscessus; details: Mycobacteroides abscessus, ATCC19977
[21] = target: recombinant M. abscessus wild-type DNA gyrase (Mycobacteroides abscessus, UniProt B1ME45+B1ME58); experiment: biochemical; set-up: species or system Mycobacterium abscessus; details: wild-type DNA gyrase; for IC50: relaxed pBR322 substrate, read-out: IC50, supercoiling activity
Chain of recombinant M. abscessus wild-type DNA gyrase (B1ME58 entry or part of it): as the sequence (B1ME58 2-839, stated change not applied) above
Chain of recombinant M. abscessus wild-type DNA gyrase (B1ME45 entry or part of it): as the sequence (B1ME45 2-675, stated change not applied) above

[22] = system: M. abscessus subsp. abscessus ATCC 19977 MXF^r-1 (GyrA D96Y); experiment: MIC, resistant mutant; format: cell-based, Mycobacterium abscessus; details: Mycobacteroides abscessus, ATCC19977
[23] = system: M. abscessus subsp. abscessus ATCC 19977 biofilm; experiment: Antibiofilm activity, MBEC biofilm assay; format: cell-based, Mycobacterium abscessus; details: 1×, 4×, 8× MIC; surface-attached CFU after 2 and 3 days
Experimental: The antibiofilm activity of 844 and 844-TMF was determined employing the MBEC 96-well Biofilm assay kit (19111; Innovotech, Edmonton, AB, Canada) as described previously ([15]) with minor modifications. Briefly, exponentially growing M. abscessus subsp. abscessus ATCC 19977 cultures were spun down at 3,200 × g for 10 min and washed with 7H9 broth without Tween 80 (‘7H9’). Bacteria were resuspended in ‘7H9’ to an OD600 of 0.0125, and 150 μl was dispensed into the wells of Innovotech 96-well plates. Pegs (protruding from the specialized lids of the Innovotech multiwell plates) were inserted into the bacterial suspensions in the wells, and the cultures were grown 24 h with shaking at 110 rpm at 37°C to allow attachment and growth of the bacteria on the surface of the pegs. […] Biofilm growth on the pegs was measured by CFU determination. The pegs were washed in 200 μl ‘7H9’ medium, removed, and placed in 1.7-ml microcentrifuge tubes (87003-294; VWR, Radnor, PA, USA) containing 500 μl PBS/Tween 80 (0.025%). The tubes were vortexed at 2,000 rpm for 90 s to detach and suspend the bacteria from the pegs before samples were serially diluted and plated onto 7H10 agar supplemented with 0.4% activated charcoal to determine CFU/peg.

[24] = system: M. abscessus subsp. abscessus ATCC 19977; experiment: Time-concentration kill assay, planktonic cultures; format: cell-based, Mycobacterium abscessus; details: 1×, 4×, 8× MIC; CFU after 2 and 3 days
Experimental: At 0, 2, and 3 days, tubes were vortexed, and 20 μl of the cultures was transferred to round-bottom 96-well plates containing 180 μl of phosphate-buffered saline (PBS) (10010023; Thermo Fisher, USA) with 0.025% Tween 80 (PBS/Tween 80) for 10-fold serial dilution. To prevent compound carryover effects, we plated out serially diluted samples onto 7H10 agar supplemented with 0.4% activated charcoal (C9154; Sigma-Aldrich, USA) for all time points as described ([48]). CFU were enumerated after 4 days of incubation at 37°C.

[25] = system: M. abscessus subsp. abscessus Bamboo; experiment: Selection and characterization of spontaneous resistant mutants; format: cell-based, Mycobacterium abscessus; details: agar with 8× MIC
[26] = system: M. abscessus complex strains; experiment: MIC across reference strains and clinical isolates; format: cell-based, Mycobacterium abscessus; details: Mycobacteroides abscessus; reference strains and clinical isolates of Table 1; read-out: MICs ranging across the M. abscessus complex strains
Experimental: as §1

[27] = Mycobacteroides abscessus, 72 h
[28] = Mycobacteroides abscessus, ATCC19977, 72 h

Row | Structure (SMILES) | MIC [1, 27] [µM] | MIC [2] [µM] | MIC [3] [µM] | MIC [4] [µM] | MIC [5] [µM] | MIC [6, 28] [µM] | MIC [7] [µM] | MIC [8] [µM] | MIC [9] [µM] | MIC [10] [µM] | MIC [11] [µM] | MIC [12] [µM] | MIC [13] [µM] | MIC [14] [µM] | MIC [15] [µM] | MIC [17] [µM] | MIC [19] [µM] | MIC [20] [µM] | IC50 [21] [µM] | MIC [22] [µM] | further results
1 | CCNC(=O)Nc1nc2cc(-c3cnc(C(C)(C)O)nc3)c(F)c([C@H]3CCCO3)c2[nH]1 [SPR719] | 0.8 (≈ 0.343 µg/mL) | 6.3 (≈ 2.7 µg/mL) | 1.5 (≈ 0.643 µg/mL) | 1.5 (≈ 0.643 µg/mL) | 1.5 (≈ 0.643 µg/mL) | 0.6 (≈ 0.257 µg/mL) | 1.5 (≈ 0.643 µg/mL) | 0.8 (≈ 0.343 µg/mL) | 0.8 (≈ 0.343 µg/mL) | 1.5 (≈ 0.643 µg/mL) | 1.5 (≈ 0.643 µg/mL) | 3 (≈ 1.29 µg/mL) | 1.5 (≈ 0.643 µg/mL) | 0.2 (≈ 0.0857 µg/mL) | 0.05 (≈ 0.0214 µg/mL) | 0.1 (≈ 0.0428 µg/mL) | 0.3 (≈ 0.129 µg/mL) | 0.3 (≈ 0.129 µg/mL) | 2.3 | 0.8 (≈ 0.343 µg/mL) | IC50, supercoiling activity [16]: same IC50 as the wild-type enzyme; cross-resistance caused by P4C resistance mutations [18]: did not cause cross-resistance; effect on supercoiling activity ([21]; up to 50 μM): inhibited supercoiling activity
2 | COc1ccc2nccc(NC(=O)C3CCN(CCc4ccc(Cl)cc4)CC3)c2n1 [compound 844] | 12 (≈ 5.1 µg/mL) | 12.5 (≈ 5.31 µg/mL) | 6.3 (≈ 2.68 µg/mL) | 14 (≈ 5.95 µg/mL) | 6.3 (≈ 2.68 µg/mL) | 8 (≈ 3.4 µg/mL) | 6.3 (≈ 2.68 µg/mL) | 6.3 (≈ 2.68 µg/mL) | 6.3 (≈ 2.68 µg/mL) | 6.3 (≈ 2.68 µg/mL) | 14 (≈ 5.95 µg/mL) | 14 (≈ 5.95 µg/mL) | 6.3 (≈ 2.68 µg/mL) | 15 (≈ 6.37 µg/mL) | 90 (≈ 38.2 µg/mL) | > 100 | 40 (≈ 17 µg/mL) | 15 (≈ 6.37 µg/mL) | 4.6 | 40 (≈ 17 µg/mL) | MIC [1]: 12 µM (≈ 5.1 µg/mL); MIC [6]: 8 µM (≈ 3.4 µg/mL); bactericidal activity against M. abscessus grown as biofilm [23]: bactericidal; bactericidal activity in planktonic cultures [24]: bactericidal; effect on supercoiling activity ([16]; GyrA D91N mutant DNA gyrase, up to 50 μM): No inhibition; frequency of spontaneous resistance [25]: 10^−8 /CFU; MIC [26]: 6 to 14 µM (≈ 2.55 to 5.95 µg/mL)
